Patent US20070270462A1, “8-hydroxyquinoline compounds for treating a polyglutamine (polyQ)-expansion disease” (priority 2005, published 2007)

What was measured:
aggregated huntingtin = assay: Western blotting of aggregated huntingtin in whole-brain extracts of R6/2 mice; assay type: in vivo, mouse; conditions: 8 weeks daily oral CQ 30 mg/kg/day
Method: CQ in water was orally administered to mice at 30 mg/kg/day starting at 3 weeks of age and continued until the mice were deceased or sacrificed for tissues. Littermate R6/2 mice were gavaged with water vehicle alone. At the end of CQ treatment mice were anesthetized and transcardially perfused with PBS followed by 4% v/v paraformaldehyde.
Whole mouse brains were homogenized in 50 mM Tris-HCl (pH 7.4), 150 mM NaCl, 1% v/v Triton X-100 and complete protease inhibitor cocktail. Brain homogenate was pre-cleared by centrifuging at 7,500 g for 90 s at 4° C. The supernatant was passed through a 28-gauge needle and boiled in SDS sample buffer for 10 min. Fifty μg of total protein was loaded onto 10% w/v SDS gel containing a 4% w/v stacking gel. Monoclonal antibodies anti-polyglutamine (1:2,000), anti-GAPDH (1:10,000), anti-GFP (1:4,000), and anti-Htt (EM48) in 1:1000 dilution were used for immunoblotting. All western blot experiments were performed at least three times and band intensities were averaged.

R6/2 mice = assay: Rotarod performance in R6/2 mice; assay type: in vivo, mouse; conditions: between ninth and eleventh weeks of age, oral CQ 30 mg/kg/day
Method: A colony of transgenic mice strain R6/2 that is heterozygous for htt exon1 (containing 145 CAG repeats) was maintained, with founders originating and available from The Jackson Laboratory (Bar Harbor, Me., USA). Male transgenic R6/2 mice were bred with background strain (B6CBAFI/J) females. Genotyping was done according to Hockly et al, Brain Res Bull 61, 469-479, 2003. CQ in water was orally administered to mice at 30 mg/kg/day starting at 3 weeks of age and continued until the mice were deceased or sacrificed for tissues. Littermate R6/2 mice were gavaged with water vehicle alone. […] Blood glucose levels were determined after at least 8 hrs of fasting in 11-week old mice (n=6 for wild-type, n=4 for vehicle-treated R6/2, n=6 for CQ-treated R6/2 littermates) using a 2300 STAT Plus glucose analyzer (YSI, Yellowsonte, Ohio, USA). Fasting blood insulin levels in animals fasted for 8 hrs were measured using an Ultra Sensitive Rat Insulin ELISA Kit (Crystal Chem, Inc., Downers Grove, Ill., USA) according to manufacturer's instructions.
Rotarod performance (n≧6 for each treatment group) was assessed as described by Hockly et al., 2003 Supra with the modification that the SDI Rota-Rod (San Diego Instruments, San Diego, Calif.) was set to linearly increase in speed to 40 rpm in 4 min ramp time. […]

YAC72 mice = assay type: in vivo
Description: Lower dosages need to be investigated to determine if such doses improve the effect. […] Moreover, since the drug is given as a single daily dose in a water suspension, it is possible that the window of time in which the blood levels are therapeutic may be small, perhaps only a few hours a day. To address these issues, it is proposed to use the R6/2 short term model for a dose-response study and then examine the effects of treatment on the longer term, milder YAC72 model. YAC72 animals carry a portion of a yeast artificial chromosome (YAC) bearing a full-length human htt gene (including the promoter) that is modified with a 72 CAG repeat expansion in exon 1. […]
CQ is delivered blended into food pellets with vitamin B12 supplementation. […] In addition, it is determined what is the average rate of consumption and fluctuations in consumption rate through the course of the day. These parameters are measured periodically in test subjects as well, to allow adjustment of dosing for body weight and food intake. […] Animals are evaluated for a variety of parameters including clasping, rotarod performance, body weight, and survival, and animals are sacrificed at 12 weeks for western and immunohistochemical analysis of huntingtin fragment accumulation and striatal atrophy. […]

Oc1c(I)cc(Cl)c2cccnc12 [CQ, 5-chloro-7-iodo-8-hydroxy-quinoline]
reduction in the quantity of aggregated huntingtin (aggregated huntingtin): 3.9 fold | rotarod performance (R6/2 mice): scored significantly better | behavioral and pathologic features (YAC72 mice; YAC72 mice, chronic CQ with B12 supplementation): significantly mitigate the behavioral and pathologic features | tolerability of chronic CQ administration (YAC72 mice; mouse, in vivo): well tolerated
